Reference: publication PMC10683027, “Discovery of tert-Butyl Ester Based 6-Diazo-5-oxo-L-norleucine Prodrugs for Enhanced Metabolic Stability and Tumor Delivery” (Journal of Medicinal Chemistry, 2023)

Key:
[1] = Metabolic stability in mouse intestinal homogenate (GIh); conditions: for remaining at 1 h, 10 µM / remaining at 1 h, 10 μM: CES1–/–, mouse, intestinal homogenate; for Intestinal homogenate: supplementary CSV, unit not given, matches Table 1 % remaining at 1 h, in %
[2] = Metabolic stability in mouse plasma; conditions: for Plasma: supplementary CSV, unit not given, matches Table 1 % remaining at 1 h, in %
[3] = Single time point pharmacokinetic screening, released DON in plasma and tumor of EL4 tumor-bearing mice; type: in vivo, C57BL/6/CES1–/– mice; conditions: 1 mg/kg DON equivalent SC; 30 min
Procedure: C57BL/6/CES1^–/– mice were obtained as a gift from the United States Army Medical Research Institute of Chemical Defense, Maryland, USA; breeding was performed in the Johns Hopkins animal facility and was conducted according to protocols reviewed and approved by the Johns Hopkins Institutional Animal Care and Use Committee in compliance with the Association for Assessment and Accreditation of Laboratory Animal Care International (AAALAC) and the Public Health Service Policy on the Humane Care and Use of Laboratory Animals (PHS Policy). Male and female C57BL/6 mice (weighing between 25 and 30 g) 6–8 weeks of age were used for the study. The animals were maintained on a 12 h light–dark cycle with ad libitum access to food (certified laboratory food: Teklad 18% Protein Extruded Rodent Diet) and water. EL4 mouse lymphoma cells were obtained as a gift from the laboratory of Dr. Jonathan Powell (Johns Hopkins University, Baltimore, MD) and maintained in RPMI 1640 medium 1X (Corning, cat. no. 10-040-CV) with 10% (v/v) fetal bovine serum (Corning, cat. no. 35-011-CV), 1% (v/v) antimycotic/antibiotic (Corning, cat. no. 30-004-CI), 2 mM L-glutamine (Corning, cat. no. 25-005-CI), and 10 mM HEPES (Corning, cat. no. 25-060-CI) in a 5% (v/v) CO2 and 95% (v/v) air incubator prior to subcutaneous (SC) injection (1 × 10^6 cells in 0.2 mL of phosphate-buffered saline) on the flank of each mouse. […]

Row | remaining at 1 h, 10 µM [1] [%] | remaining at 1 h, 10 μM [1] [%] | Intestinal homogenate [1] | remaining at 1 h, 10 µM ([2]; CES1–/–, mouse, plasma) [%] | Plasma [2] | SMILES | preferential DON tumor versus plasma delivery [3] | remaining at 1 h, 10 μM ([2]; CES1–/–, mouse, plasma) [%]
1 | 6 | < 10 | 6 ± 0 |  |  | CC(=O)N[C@@H](Cc1c[nH]c2ccccc12)C(=O)N[C@@H](CCC(=O)C=[N+]=[N-])C(=O)OC1CC1 [Prodrug P3, Cyclopropyl (S)-2-((S)-2-Acetamido-3-(1H-indol-3-yl)propanamido)-6-diazo-5-oxohexanoate] |  | 
2 | 2 | < 10 | 2 ± 0 |  |  | CCOC(=O)[C@H](CCC(=O)C=[N+]=[N-])NC(=O)[C@H](Cc1c[nH]c2ccccc12)NC(C)=O [Prodrug P2, Ethyl (S)-2-((S)-2-Acetamido-3-(1H-indol-3-yl)propanamido)-6-diazo-5-oxohexanoate] |  | 
3 | 69 ± 7 |  | 69 ± 7 | 99 ± 3 | 99 ± 3 | CN(C)CC(=O)N[C@@H](Cc1cccc(F)c1)C(=O)N[C@@H](CCC(=O)C=[N+]=[N-])C(=O)OC(C)(C)C [Prodrug P16, tert-Butyl (S)-6-Diazo-2-((S)-2-(2-(dimethylamino)acetamido)-3-(3-fluorophenyl)propanamido)-5-oxohexanoate] |  | 
4 | 79 |  | 79 ± 0 | 98 ± 2 | 98 ± 2 | CC(C)C[C@H](NC(=O)CN(C)C)C(=O)N[C@@H](CCC(=O)C=[N+]=[N-])C(=O)OC(C)(C)C [Prodrug P20, tert-Butyl (S)-6-Diazo-2-((S)-2-(2-(dimethylamino)acetamido)-4-methylpentanamido)-5-oxohexanoate] |  | 
5 | 90 ± 3 |  | 90 ± 3 | 92 | 92 ± 0 | CN(C)CC(=O)N[C@H](Cc1ccccc1)C(=O)N[C@@H](CCC(=O)C=[N+]=[N-])C(=O)OC(C)(C)C [Prodrug P12, tert-Butyl (S)-6-Diazo-2-((R)-2-(2-(dimethylamino)acetamido)-3-phenylpropanamido)-5-oxohexanoate] |  | 
6 | 4 | < 10 | 4 ± 0 |  |  | COC(=O)[C@H](CCC(=O)C=[N+]=[N-])NC(=O)[C@H](Cc1c[nH]c2ccccc12)NC(C)=O [Prodrug P1, Methyl (S)-2-((S)-2-Acetamido-3-(1H-indol-3-yl)propanamido)-6-diazo-5-oxohexanoate] |  | 
7 | 83 ± 1 |  | 83 ± 1 | 95 ± 3 |  | CC(C)(C)OC(=O)[C@H](CCC(=O)C=[N+]=[N-])NC(=O)[C@H](Cc1c[nH]c2ccccc12)NC(=O)CN1CCOCC1 [Prodrug P7, tert-Butyl (S)-2-((S)-3-(1H-Indol-3-yl)-2-(2-morpholinoacetamido)propanamido)-6-diazo-5-oxohexanoate] |  | 
8 | 66 ± 1 |  | 66 ± 1 | 102 ± 2 | 102 ± 2 | CN(C)CC(=O)N[C@@H](Cc1c[nH]c2ccccc12)C(=O)N[C@@H](CCC(=O)C=[N+]=[N-])C(=O)OC(C)(C)C [Prodrug P9, tert-Butyl (S)-6-Diazo-2-((S)-2-(2-(dimethylamino)acetamido)-3-(1H-indol-3-yl)propanamido)-5-oxohexanoate] |  | 
9 | 86 ± 4 |  | 86 ± 4 | 99 ± 2 | 99 ± 2 | C[C@H](NC(=O)CN(C)C)C(=O)N[C@@H](CCC(=O)C=[N+]=[N-])C(=O)OC(C)(C)C [Prodrug P19, tert-Butyl (S)-6-Diazo-2-((S)-2-(2-(dimethylamino)acetamido)propanamido)-5-oxohexanoate] |  | 
10 | 1 | < 10 | 1 ± 0 |  |  | CC(=O)N[C@@H](Cc1c[nH]c2ccccc12)C(=O)N[C@@H](CCC(=O)C=[N+]=[N-])C(=O)OCC1CC1 [Prodrug P4, Cyclopropylmethyl (S)-2-((S)-2-Acetamido-3-(1H-indol-3-yl)propanamido)-6-diazo-5-oxohexanoate] |  | 
11 | 99 ± 1 | > 50 | 99 ± 1 | 92 ± 1 | 92 ± 1 | CC(=O)N[C@@H](Cc1c[nH]c2ccccc12)C(=O)N[C@@H](CCC(=O)C=[N+]=[N-])C(=O)OC(C)(C)C [Prodrug P5, tert-Butyl (S)-2-((S)-2-Acetamido-3-(1H-indol-3-yl)propanamido)-6-diazo-5-oxohexanoate] |  | 
12 | 87 ± 2 |  | 87 ± 2 | 97 ± 2 | 97 ± 2 | CN(C)CC(=O)N[C@@H](Cc1cn(C)c2ccccc12)C(=O)N[C@@H](CCC(=O)C=[N+]=[N-])C(=O)OC(C)(C)C [Prodrug P10, tert-Butyl (S)-6-Diazo-2-((S)-2-(2-(dimethylamino)acetamido)-3-(1-methyl-1H-indol-3-yl)propanamido)-5-oxohexanoate] |  | 
13 | 67 ± 1 |  | 67 ± 1 | 108 ± 1 | 108 ± 1 | CN(C)CC(=O)N[C@@H](Cc1ccc(F)cc1)C(=O)N[C@@H](CCC(=O)C=[N+]=[N-])C(=O)OC(C)(C)C [Prodrug P15, tert-Butyl (S)-6-Diazo-2-((S)-2-(2-(dimethylamino)acetamido)-3-(4-fluorophenyl)propanamido)-5-oxohexanoate] |  | 
14 | 76 ± 1 |  | 76 ± 1 | 70 ± 14 | 70 ± 14 | CN(C)CC(=O)N[C@@H](Cc1ccc(C(F)(F)F)cc1)C(=O)N[C@@H](CCC(=O)C=[N+]=[N-])C(=O)OC(C)(C)C [Prodrug P17, tert-Butyl (S)-6-Diazo-2-((S)-2-(2-(dimethylamino)acetamido)-3-(4-(trifluoromethyl)phenyl)propanamido)-5-oxohexanoate] |  | 
15 | 68 ± 1 |  | 68 ± 1 | 98 ± 3 | 98 ± 3 | CN(C)CC(=O)N[C@@H](CC(C)(C)C)C(=O)N[C@@H](CCC(=O)C=[N+]=[N-])C(=O)OC(C)(C)C [Prodrug P21, tert-Butyl (S)-6-Diazo-2-((S)-2-(2-(dimethylamino)acetamido)-4,4-dimethylpentanamido)-5-oxohexanoate] |  | 

Row | SMILES | remaining at 1 h, 10 µM [1] [%] | remaining at 1 h, 10 μM [1] [%] | Intestinal homogenate [1] | remaining at 1 h, 10 µM ([2]; CES1–/–, mouse, plasma) [%] | Plasma [2] | preferential DON tumor versus plasma delivery [3] | remaining at 1 h, 10 μM ([2]; CES1–/–, mouse, plasma) [%]
16 | CN(C)CC(=O)N[C@@H](CCc1ccccc1)C(=O)N[C@@H](CCC(=O)C=[N+]=[N-])C(=O)OC(C)(C)C [Prodrug P14, tert-Butyl (S)-6-Diazo-2-((S)-2-(2-(dimethylamino)acetamido)-4-phenylbutanamido)-5-oxohexanoate] | 97 ± 3 |  | 97 ± 3 | 102 ± 2 | 102 ± 2 | maintained the preferential DON tumor versus plasma delivery | 
17 | CNC(=O)[C@H](CCC(=O)C=[N+]=[N-])NC(=O)[C@H](Cc1c[nH]c2ccccc12)NC(C)=O [Prodrug P6, (S)-2-((S)-2-Acetamido-3-(1H-indol-3-yl)propanamido)-6-diazo-N-methyl-5-oxohexanamide] | 77 ± 1 | > 50 | 77 ± 1 | 102 ± 1 | 102 ± 1 |  | 
18 | CN(C)CC(=O)NCC(=O)N[C@@H](CCC(=O)C=[N+]=[N-])C(=O)OC(C)(C)C [Prodrug P18, tert-Butyl (S)-6-Diazo-2-(2-(2-(dimethylamino)acetamido)acetamido)-5-oxohexanoate] | 97 ± 1 |  | 97 ± 1 | 108 ± 1 | 108 ± 1 |  | 
19 | CN(C)CC(=O)N[C@H](C(=O)N[C@@H](CCC(=O)C=[N+]=[N-])C(=O)OC(C)(C)C)c1ccccc1 [Prodrug P13, tert-Butyl (S)-6-Diazo-2-((S)-2-(2-(dimethylamino)acetamido)-2-phenylacetamido)-5-oxohexanoate] |  | 92 ± 1 | 92 ± 1 |  | 92 ± 1 |  | 92 ± 1
